From patent US20160046592A1, “PHARMACEUTICAL COMPOSITION FOR THE TREATMENT OF DIABETES” (Ajinomoto Co., Inc., priority 2013, published 2016)
Structures can show the parent of a compound that is named as a salt.

Biological target: T1, PPAR-α (Homo sapiens, UniProt Q07869)
T1 construct: expressed in transfected cells; host or cells: CV-1 (African green monkey kidney)
T1 sequence (Q07869 167-468): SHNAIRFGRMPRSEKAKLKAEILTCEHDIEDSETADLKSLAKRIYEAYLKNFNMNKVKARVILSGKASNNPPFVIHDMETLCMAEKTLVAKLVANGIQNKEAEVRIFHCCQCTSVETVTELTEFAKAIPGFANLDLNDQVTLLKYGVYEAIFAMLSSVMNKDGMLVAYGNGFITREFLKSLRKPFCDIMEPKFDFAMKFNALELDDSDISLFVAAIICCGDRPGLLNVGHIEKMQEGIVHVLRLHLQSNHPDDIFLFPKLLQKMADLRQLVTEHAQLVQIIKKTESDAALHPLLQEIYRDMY
Test: Measurement of PPAR-α activity (GAL4 luciferase reporter assay in CV-1 cells)
Assay type: cell-based
Conditions: 100(A/B): A = maximum PPAR-α activity of test compound at 3, 10, 30 and 100 μM, B = activity of the compound of WO/2011/058154 at 100 μM, 18 to 20 hours, read-out: Relative fold induction (%) of PPAR α
How it was run: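 CV-1 cells were co-transfected with a UAS×5-TK-Luc reporter and a hGR-GAL4-hPPARα (LBD 167-468aa) expression plasmid, then dosed with compound for 18 to 20 h at 37 °C, with Bright-Glo luciferase read-out. Relative fold induction (%) is the maximum activity at 3, 10, 30 or 100 μM divided by the activity of a WO/2011/058154 reference compound at 100 μM.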

COC[C@@H]1CC[C@@H](C(=O)O)N1C(=O)c1cccc(COc2ccc(-c3cc(F)c(F)cc3SC)cc2)c1 [Example 62, (2S,5S)-1-[3-[[4-(4,5-Difluoro-2-methylsulfanyl-phenyl)phenoxy]methyl]benzoyl]-5-(methoxymethyl)pyrrolidine-2-carboxylic Acid]
Emax: 14%

CSc1cc(F)c(F)cc1-c1ccc(OCc2cccc(C(=O)N3C[C@H](N(C)C)C[C@H]3C(=O)O)c2)cc1 [Example 63, (2S,4R)-1-[3-[[4-(4,5-Difluoro-2-methylsulfanyl-phenyl)phenoxy]methyl]benzoyl]-4-(dimethylamino)pyrrolidine-2-carboxylic Acid Trifluoroacetate]
Emax: 13%
